Converted amounts (≈) assume the structure as drawn. Bridge positions count the residues as written; N and C are the ends. Peptide text beside a SMILES is read from it.
How the values were obtained:
Assay in all cases: microbe, parasite or virus in culture
Ent. faecalis JH2-2 = assay type: cell-based, Enterococcus faecalis
Protocol: (§1) To determine the antimicrobial activity of the new antimicrobial peptides, HG2 and HG4, their minimum inhibitory concentrations (MICs) were determined by broth microdilution method[51] in cation adjusted Mueller Hinton broth (MHB) following the International Organisation for Standardisation (ISO) 20776-1 standard for MIC testing using a final bacterial inoculum of 5 × 10^5 CFU/ml[52]. […] The peptides dissolved in sterile distilled water were added to bacteria culture and incubated overnight at appropriate conditions. The MICs of the peptides and comparator antibiotics were recorded after 18–24 h. The minimum bactericidal concentrations (MBCs) were also determined and were taken as the lowest concentration of the antimicrobial that prevented the growth of bacterial cells after the subculture of cells (from MIC treatment) onto antibiotic-free media.

Sal. typhimurium SL1344 = assay type: cell-based, Salmonella enterica serovar Typhimurium
Protocol: as §1

Ent. faecalis = assay type: cell-based, Enterococcus faecalis; conditions: Ent. faecalis; Supplementary Table 5
Protocol: as §1

List. monocytogenes = assay type: cell-based, Listeria monocytogenes
Protocol: as §1

[1] = test system: L. monocytogenes NCTC 11994; assay type: cell-based, Listeria monocytogenes; conditions: NCTC 11994
Protocol: as §1

Sal. typhimurium = assay type: cell-based, Salmonella enterica serovar Typhimurium; conditions: Sal. typhimurium; Supplementary Table 5
Protocol: as §1

EMRA-15 = assay type: cell-based, Staphylococcus aureus
Outline: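 MIC: cation-adjusted MHB, ISO 20776-1 microdilution, 5 × 10^5 CFU/ml final; peptides in sterile water; read at 18–24 h. MBC: MIC wells subcultured onto drug-free media, lowest concentration with no growth.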

Row | SMILES | MIC (Ent. faecalis JH2-2) | MIC (Sal. typhimurium SL1344) | Minimum inhibitory Concentrations MICs (Ent. faecalis) | Minimum inhibitory Concentrations MICs (List. monocytogenes) | MIC [1] | Minimum inhibitory Concentrations MICs (Sal. typhimurium) | Minimum inhibitory Concentrations MICs (EMRA-15)
1 | CC[C@H](C)[C@H](NC(=O)[C@H](CC(C)C)NC(=O)[C@H](CC(C)C)NC(=O)[C@H](CC(C)C)NC(=O)[C@H](CCCCN)NC(=O)[C@H](CCCCN)NC(=O)[C@@H](N)CCSC)C(=O)N[C@@H](CC(C)C)C(=O)N[C@@H](Cc1ccccc1)C(=O)N[C@H]1CSSC[C@@H](C(=O)N[C@@H](CCCCN)C(=O)N[C@@H](CCCCN)C(=O)N[C@@H](C)C(=O)N2CCC[C@H]2C(N)=O)NC(=O)CNC(=O)[C@H](C)NC(=O)[C@H](CC(C)C)NC(=O)[C@H](C)NC(=O)[C@H](CC(C)C)NC(=O)[C@H](C)NC(=O)[C@H](CC(C)C)NC1=O [HG2] (H-MKKLLLILFCLALALAGCKKAP-NH2; disulfide 10-18; N-terminus assumed) | 256 µg/mL (≈ 109 µM) | 256 µg/mL (≈ 109 µM) | – | – | – | – | –
2 | CC[C@H](C)[C@H](NC(=O)[C@H](CC(C)C)NC(=O)[C@H](CC(C)C)NC(=O)[C@H](C)NC(=O)CNC(=O)CNC(=O)[C@@H](NC(=O)[C@@H](NC(=O)[C@H](CC(C)C)NC(=O)[C@H](C)NC(=O)[C@H](CC(C)C)NC(=O)CNC(=O)[C@H](CC(C)C)NC(=O)[C@@H](N)C(C)C)[C@@H](C)CC)C(C)C)C(=O)N[C@@H](CCCCN)C(=O)N[C@@H](CCCCN)C(=O)N[C@@H](CCCCN)C(=O)N[C@@H](CCC(N)=O)C(=O)N[C@@H](C)C(=O)N[C@@H](CCCCN)C(=O)N[C@@H](CO)C(N)=O [HG4] (H-VLGLALIVGGALLIKKKQAKS-NH2; N-terminus and C-terminus assumed) | – | – | 128 µg/mL | 512 µg/mL | 512 µg/mL (≈ 242 µM) | 512 µg/mL | 32 µg/mL

From PMC9283466, “In silico identification of two peptides with antibacterial activity against multidrug-resistant Staphylococcus aureus” (NPJ Biofilms and Microbiomes, 2022)
